Series [1] has as its target T1, δ-opioid receptor (DOR) (Homo sapiens, UniProt P41143).
T1 construct: host or cells: cAMP Hunter CHO-K1 OPRD1 Gαi cell line
The series can be described thus: DOR agonist cAMP assay (HitHunter cAMP, forskolin-stimulated). The series is classed as cell-based. In short, it runs like this:
(§1)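 CHO-K1 Gαi cells expressing OPRM1 or OPRD1 were exposed 30 min at 37° C to 11-point threefold agonist dilutions, in duplicate, with 20 uM forskolin final. cAMP quantified by EFC chemiluminescent competitive immunoassay against cAMP standards. EC50 by four-parameter Hill nonlinear regression.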

Series [2] can be described thus: SGF assay (stability in simulated gastric fluid). Particulars: pig, simulated gastric fluid (SGF) with porcine pepsin, pH 2, pepsin, 37° C. The series is classed as in vitro ADME. As to the method: SGF was prepared by adding 20 mg NaCl, 32 mg porcine pepsin (MP Biochemicals, catalog 02102599), and 70 μl HCl to 10 ml water (final pH=2). Aliquots of SGF (0.5 ml each) were pre-warmed at 37° C. To start the reaction, 1 μl of opioid agonist peptide stock solution (10 mM in DMSO) was added to 0.5 ml SGF and thoroughly mixed such that the final peptide concentration was 20 μM. The reactions were incubated at 37° C. with gentle shaking.
At each timepoint (0, 15, 30, 60 min) 50 µl aliquots were removed and added to 200 ul of acetonitrile containing 0.1% formic acid to quench the reaction. Samples were stored at 4° C. until the end of the experiment and centrifuged at 10,000 rpm for 5 minutes. Aliquots of the supernatant were removed, diluted 1:1 into distilled water containing internal standard, and analyzed by LCMS/MS. The percent of the opioid agonist peptide remaining at each timepoint was calculated based on the peak area response ratio of the opioid agonist peptide to the internal standard. Time 0 was set to 100%, and all later timepoints were calculated relative to time 0. Half-lives were calculated by fitting to a first-order exponential decay equation using GraphPad.

Series [3] in a line: SIF assay (stability in simulated intestinal fluid). The class given is in vitro ADME. Particulars: simulated intestinal fluid (SIF) with pancreatin; simulated intestinal fluid, pH 6.8, pancreatin, 37° C., 20 μM. The method, then: SIF was prepared by adding 6.8 g of monobasic potassium phosphate and 10.0 g of pancreatin to 1.0 L of water. After dissolution, the pH was adjusted to 6.8 using NaOH. DMSO stocks (2 mM) were prepared for each of the opioid agonist peptides. Aliquots of the DMSO solutions were dosed into […], each containing 0.5 mL of SIF, which was pre-warmed to 37° C. The final opioid agonist peptide concentration was 20 μM. The vials were kept in a benchtop Thermomixer® for the duration of the experiment. At each timepoint (0, 5, 10, 20, 40, 60, or 360 minutes or 24 hours), 1.0 mL of acetonitrile containing 1% formic acid was added to one vial to terminate the reaction. Samples were stored at 4° C. until the end of the experiment. After the final timepoint was sampled, the tubes were mixed and then centrifuged at 3,000 rpm for 10 minutes. Aliquots of the supernatant were removed, diluted 1:1 into distilled water containing an internal standard, and analyzed by LCMS/MS. The percent of the opioid agonist peptide remaining at each timepoint was calculated based on the peak area response ratio of opioid agonist peptide to the internal standard. Time 0 was set to 100%, and all later timepoints were calculated relative to time 0. Half-lives were calculated by fitting to a first-order exponential decay equation using Graph pad.

Series [4] can be described thus: Plasma assay (stability in mouse plasma). The series is classed as in vitro ADME. The conditions noted are these: 37° C. The method, then:
Peptides of interest (20 uM) were incubated with pre-warmed mouse plasma (BioreclamationIVT) at 37° C. Aliquots were taken at various time points up to 24 hours (e.g. 0, 0.25, 1, 3, 6 and 24 hr), and immediately quenched with 4 volumes of organic solvent (acetonitrile/methanol (1:1) and 0.1% formic acid, containing 1 μM internal standard). Quenched samples were stored at 4° C. until the end of the experiment and centrifuged at 17,000 g for 15 minutes. The supernatant was diluted 1:1 with deionized water and analyzed using LC-MS. Percentage remaining at each time point was calculated based on the peak area ratio (analyte over internal standard) relative to the initial level at time zero. Half-lives were calculated by fitting to a first-order exponential decay equation using Graph Pad Prism.

For series [5], the target named is T2, μ-opioid receptor (MOR) (Homo sapiens, UniProt P35372).
T2 construct: host or cells: cAMP Hunter CHO-K1 OPRM1 Gαi cell line
T2 sequence (P35372 whole entry): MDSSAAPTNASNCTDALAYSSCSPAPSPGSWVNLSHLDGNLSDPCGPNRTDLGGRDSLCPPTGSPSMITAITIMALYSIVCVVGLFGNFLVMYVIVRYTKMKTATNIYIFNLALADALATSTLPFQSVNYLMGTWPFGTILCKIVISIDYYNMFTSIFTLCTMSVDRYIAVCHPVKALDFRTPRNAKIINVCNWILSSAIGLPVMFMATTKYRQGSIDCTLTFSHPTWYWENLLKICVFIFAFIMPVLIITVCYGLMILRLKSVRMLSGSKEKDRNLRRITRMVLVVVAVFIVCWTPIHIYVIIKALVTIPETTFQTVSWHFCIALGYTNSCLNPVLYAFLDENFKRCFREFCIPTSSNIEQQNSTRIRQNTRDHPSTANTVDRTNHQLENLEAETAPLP
Kind of series: MOR agonist cAMP assay (HitHunter cAMP, forskolin-stimulated). The class given is cell-based. In short, it runs like this:
as §1

T1 sequence (P41143 whole entry): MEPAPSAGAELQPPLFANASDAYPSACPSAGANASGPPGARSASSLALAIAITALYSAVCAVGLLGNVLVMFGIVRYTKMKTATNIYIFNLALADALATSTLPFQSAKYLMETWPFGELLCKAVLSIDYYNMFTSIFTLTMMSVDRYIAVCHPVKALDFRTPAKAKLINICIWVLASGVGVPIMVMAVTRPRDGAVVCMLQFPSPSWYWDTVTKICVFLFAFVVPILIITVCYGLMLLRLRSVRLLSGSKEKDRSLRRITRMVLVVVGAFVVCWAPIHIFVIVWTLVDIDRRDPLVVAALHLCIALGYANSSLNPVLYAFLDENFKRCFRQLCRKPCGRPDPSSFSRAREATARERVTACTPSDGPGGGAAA

Consider `Cc1cc(O)cc(C)c1C[C@H](N)C(=O)N[C@H](C)C(=O)NCC(=O)N[C@H](CC(=O)N(C)CC(N)=O)Cc1ccccc1` [compound 43], for which the concentration for a half-maximal effect (EC50) in series [1] was less than 1 nM. Also, the half-life at 20 μM in series [2] was more than 24 h; in series [3] it was 6 to 24 h. Further, the half-life at 20 uM in series [4] fell in the range of 6 to 24 h.
As to `Cc1cc(O)cc(C)c1C[C@H](N)C(=O)N[C@H](CC(=O)O)C(=O)NCC(=O)N[C@H](CC(=O)N(C)CC(N)=O)Cc1ccccc1` [compound 83], the 50% effective concentration (EC50) in series [5] and in series [1] was less than 1 nM in each case. The half-life at 20 μM in series [2] and in series [3] was more than 24 h throughout. Further, the half-life at 20 uM in series [4] is more than 24 h.

Source of the values: patent US10278957B2, “Opioid agonist peptides and uses thereof” (Protagonist Therapeutics, Inc., priority 2017, dated 2019).
